Assay results as given in patent US20150283139A1, “CANCER TREATMENT METHOD” (SmithKline Beecham (Cork) Limited, priority 2004, published 2015).

Columns and labels:
[1] = in vivo; cited from earlier work
NSCLC adenocarcinoma = conditions: first-line gefitinib, Asian, female, non-smokers; cited from earlier work
[2] = tested on: non small cell lung cancer (NSCLC) brain metastases; conditions: eight subjects with newly diagnosed, untreated NSCLC brain metastases; cited from earlier work
[3] = tested on: brain metastases from erbB-2 overexpressing, metastatic breast cancer; test: Clinical study of orally administered lapatinib, PET scan of brain lesions; format: in vivo, human; conditions: one patient, 750 mg lapatinib twice daily, previously treated with trastuzumab
Source text: Safety and efficacy assessments (independent review) were to be carried out at 2 and 4-week intervals respectively. PET scans were to be run at baseline, 1 week and 8 weeks and MRI at baseline, 8 weeks, and 16 weeks.

Cn1nnc2c(C(N)=O)ncn2c1=O [Temozolomide]
crossing of the blood-brain barrier [1]: readily crosses the blood-brain barrier

COc1cc2ncnc(Nc3ccc(F)c(Cl)c3)c2cc1OCCCN1CCOCC1 [gefitinib]
partial response rate (NSCLC adenocarcinoma): 69% | systemic disease control rate (NSCLC adenocarcinoma): 80% | subjects with prolonged CNS partial responses [2]: Seven out of eight

CS(=O)(=O)CCNCc1ccc(-c2ccc3ncnc(Nc4ccc(OCc5cccc(F)c5)c(Cl)c4)c3c2)o1.Cc1ccc(S(=O)(=O)O)cc1 [lapatinib, N-{3-Chloro-4-[(3-fluorobenzyl)oxy]phenyl}-6-[5-({[2-(methanesulphonyl)ethyl]amino}methyl)-2-furyl]-4-quinazolinamine ditosylate monhydrate]
initial week 1 PET scan results (brain lesions) [3]: promising activity with a dramatic change in one lesion while other brain lesions showed less change or no change at all
